Reference: patent publication EP4553080A1, “NUCLEOSIDE DERIVATIVES AS ANTIVIRAL AGENTS AGAINST CORONAVIRUSES” (Ustav Organicke Chemie a Biochemie AV CR, v.v.i., priority 2023, dated 2025)

These compounds were tested against nsp14 methyltransferase from SARS-CoV-2 (Severe acute respiratory syndrome coronavirus 2, UniProt P0DTD1) (assay: Nsp14 MTase activity inhibition in vitro (EchoMS assay)). Details: not given.
Assay type: biochemical
With Cc1noc(Cc2ccccc2)c1CSC[C@H]1O[C@@H](n2ccc3c(N)ncnc32)[C@H](O)[C@@H]1O [Compound 99c, (2R,3R,4S,5S)-2-(4-Amino-7H-pyrrolo[2,3-d]pyrimidin-7H-yl)-5-((((5-benzyl-3-methylisoxazol-4-yl)methyl)thio)methyl)tetrahydrofuran-3,4-diol] the IC50 was 2 to 5 µM.

Same assay, conditions: recombinant nsp14 protein expressed in E. coli; dose-response curve
Compound Cc1noc(-c2ccccc2)c1CSC[C@H]1O[C@@H](n2cc(C3C[C@@H]4CC[C@H]3C4)c3c(N)ncnc32)[C@H](O)[C@@H]1O (stereo in doubt) [Compound 136b, (2R,3R,4S,5S)-2-(4-Amino-5-((1S,4R)-bicyclo[2.2.1]heptan-2-yl)-7H-pyrrolo[2,3-d]pyrimidin-7-yl)-5-((((3-methyl-5-phenylisoxazol-4-yl)methyl)thio)methyl)tetrahydrofuran-3,4-diol] has an IC50 of 0.1 to 0.5 µM. For Cc1noc(-c2ccccc2)c1CSC[C@H]1O[C@@H](n2ccc3c(N)ncnc32)[C@H](O)[C@@H]1O [Compound 47c, (2R,3R,4S,5S)-2-(4-Amino-7H-pyrrolo[2,3-d]pyrimidin-7-yl)-5-((((3-methyl-5-phenylisoxazol-4-yl)methyl)thio)methyl)tetrahydrofuran-3,4-diol], the IC50 was 0.03 to 0.1 µM. Compound Cc1onc(-c2ccccc2)c1CSC[C@H]1O[C@@H](n2ccc3c(N)ncnc32)[C@H](O)[C@@H]1O [Compound 48c, (2R,3R,4S,5S)-2-(4-Amino-7H-pyrrolo[2,3-d]pyrimidin-7-yl)-5-((((5-methyl-3-phenylisoxazol-4-yl)methyl)thio)methyl)tetrahydrofuran-3,4-diol] has an IC50 of 0.1 to 0.5 µM. Cn1cnc(-c2ccccc2)c1CSC[C@H]1O[C@@H](n2ccc3c(N)ncnc32)[C@H](O)[C@@H]1O [Compound 49c] showed an IC50 of 0.1 to 0.5 µM. Work on Cc1nccc(-c2ccccc2)c1CSC[C@H]1O[C@@H](n2ccc3c(N)ncnc32)[C@H](O)[C@@H]1O [Compound 50c, (2R,3R,4S,5S)-2-(4-Amino-7H-pyrrolo[2,3-d]pyrimidin-7-yl)-5-((((2-methyl-4-phenylpyridin-3-yl)methyl)thio)methyl)tetrahydrofuran-3,4-diol] yielded an IC50 of 0.1 to 0.5 µM. With Cc1n[nH]c(-c2ccccc2)c1CSC[C@H]1O[C@@H](n2ccc3c(N)ncnc32)[C@H](O)[C@@H]1O [Compound 51c, (2R,3R,4S,5S)-2-(4-Amino-7H-pyrrolo[2,3-d]pyrimidin-7-yl)-5-((((3-methyl-5-phenyl-1H-pyrazol-4-yl)methyl)thio)methyl)tetrahydrofuran-3,4-diol] the IC50 was 0.1 to 0.5 µM. Cc1scc(-c2ccccc2)c1CSC[C@H]1O[C@@H](n2ccc3c(N)ncnc32)[C@H](O)[C@@H]1O [Compound 52c, (2R,3R,4S,5S)-2-(4-Amino-7H-pyrrolo[2,3-d]pyrimidin-7-yl)-5-((((2-methyl-4-phenylthiophen-3-yl)methyl)thio)methyl)tetrahydrofuran-3,4-diol] was tested, and the IC50 was 0.5 to 2 µM. Cc1csc(-c2ccccc2)c1CSC[C@H]1O[C@@H](n2ccc3c(N)ncnc32)[C@H](O)[C@@H]1O [Compound 53c, (2R,3R,4S,5S)-2-(4-Amino-7H-pyrrolo[2,3-d]pyrimidin-7-yl)-5-((((4-methyl-2-phenylthiophen-3-yl)methyl)thio)methyl)tetrahydrofuran-3,4-diol] was tested, and the IC50 was 0.1 to 0.5 µM. Cc1nsc(-c2ccccc2)c1CSC[C@H]1O[C@@H](n2ccc3c(N)ncnc32)[C@H](O)[C@@H]1O [Compound 54c, (2R,3R,4S,5S)-2-(4-Amino-7H-pyrrolo[2,3-d]pyrimidin-7-yl)-5-((((3-methyl-5-phenylisothiazol-4-yl)methyl)thio)methyl)tetrahydrofuran-3,4-diol] showed an IC50 of 0.03 to 0.1 µM. Compound Cn1nnc(-c2ccccc2)c1CSC[C@H]1O[C@@H](n2ccc3c(N)ncnc32)[C@H](O)[C@@H]1O [Compound 55c, (2R,3R,4S,5S)-2-(4-Amino-7H-pyrrolo[2,3-d]pyrimidin-7-yl)-5-((((1-methyl-4-phenyl-1H-1,2,3-triazol-5-yl)methyl)thio)methyl)tetrahydrofuran-3,4-diol] has an IC50 of 0.03 to 0.1 µM. Cc1ncnc(-c2ccccc2)c1CSC[C@H]1O[C@@H](n2ccc3c(N)ncnc32)[C@H](O)[C@@H]1O [Compound 56c, (2R,3R,4S,5S)-2-(4-Amino-7H-pyrrolo[2,3-d]pyrimidin-7-yl)-5-((((4-methyl-6-phenylpyrimidin-5-yl)methyl)thio)methyl)tetrahydrofuran-3,4-diol] was tested, and the IC50 was 0.1 to 0.5 µM. With Cc1cncc(-c2ccccc2)c1CSC[C@H]1O[C@@H](n2ccc3c(N)ncnc32)[C@H](O)[C@@H]1O [Compound 57c, (2R,3R,4S,5S)-2-(4-Amino-7H-pyrrolo[2,3-d]pyrimidin-7-yl)-5-((((3-methyl-5-phenylpyridin-4-yl)methyl)thio)methyl)tetrahydrofuran-3,4-diol] the IC50 was 0.03 to 0.1 µM. Work on Cc1cccc(-c2ccccc2)c1CSC[C@H]1O[C@@H](n2ccc3c(N)ncnc32)[C@H](O)[C@@H]1O [Compound 58c, (2R,3R,4S,5S)-2-(4-Amino-7H-pyrrolo[2,3-d]pyrimidin-7-yl)-5-((((3-methyl-[1,1'-biphenyl]-2-yl)methyl)thio)methyl)tetrahydrofuran-3,4-diol] yielded an IC50 of 0.5 to 2 µM. Cc1snc(-c2ccccc2)c1CSC[C@H]1O[C@@H](n2ccc3c(N)ncnc32)[C@H](O)[C@@H]1O [Compound 59c, (2R,3R,4S,5S)-2-(4-Amino-7H-pyrrolo[2,3-d]pyrimidin-7-yl)-5-((((5-methyl-3-phenylisothiazol-4-yl)methyl)thio)methyl)tetrahydrofuran-3,4-diol] gave an IC50 of 0.03 to 0.1 µM. In the case of Cn1ncc(-c2ccccc2)c1CSC[C@H]1O[C@@H](n2ccc3c(N)ncnc32)[C@H](O)[C@@H]1O [Compound 60c, (2R,3R,4S,5S)-2-(4-Amino-7H-pyrrolo[2,3-d]pyrimidin-7-yl)-5-((((1-methyl-4-phenyl-1H-pyrazol-5-yl)methyl)thio)methyl)tetrahydrofuran-3,4-diol], the IC50 is reported as 0.03 to 0.1 µM. Work on Cc1ncn(-c2ccccc2)c1CSC[C@H]1O[C@@H](n2ccc3c(N)ncnc32)[C@H](O)[C@@H]1O [Compound 61c, (2R,3R,4S,5S)-2-(4-Amino-7H-pyrrolo[2,3-d]pyrimidin-7-yl)-5-((((4-methyl-1-phenyl-1H-imidazol-5-yl)methyl)thio)methyl)tetrahydrofuran-3,4-diol] yielded an IC50 of 0.1 to 0.5 µM. Cc1ccnc(-c2ccccc2)c1CSC[C@H]1O[C@@H](n2ccc3c(N)ncnc32)[C@H](O)[C@@H]1O [Compound 62c, (2R,3R,4S,5S)-2-(4-Amino-7H-pyrrolo[2,3-d]pyrimidin-7-yl)-5-((((4-methyl-2-phenylpyridin-3-yl)methyl)thio)methyl)tetrahydrofuran-3,4-diol] showed an IC50 of 0.5 to 2 µM. For Cc1noc(-c2ccc([N+](=O)[O-])cc2)c1CSC[C@H]1O[C@@H](n2ccc3c(N)ncnc32)[C@H](O)[C@@H]1O [Compound 93c, (2R,3R,4S,5S)-2-(4-Amino-7H-pyrrolo[2,3-d]pyrimidin-7-yl)-5-((((3-methyl-5-(4-nitrophenyl)isoxazol-4-yl)methyl)thio)methyl)tetrahydrofuran-3,4-diol], the IC50 was 0.1 to 0.5 µM. COc1ccc(-c2onc(C)c2CSC[C@H]2O[C@@H](n3ccc4c(N)ncnc43)[C@H](O)[C@@H]2O)cc1 [Compound 94c, (2R,3R,4S,5S)-2-(4-Amino-7H-pyrrolo[2,3-d]pyrimidin-7-yl)-5-((((5-(4-methoxyphenyl)-3-methylisoxazol-4-yl)methyl)thio)methyl)tetrahydrofuran-3,4-diol] was tested, and the IC50 was 0.01 to 0.03 µM. For Cc1ccc(-c2onc(C)c2CSC[C@H]2O[C@@H](n3ccc4c(N)ncnc43)[C@H](O)[C@@H]2O)cc1C [Compound 95c, (2R,3R,4S,5S)-2-(4-Amino-7H-pyrrolo[2,3-d]pyrimidin-7-yl)-5-((((5-(3,4-dimethylphenyl)-3-methylisoxazol-4-yl)methyl)thio)methyl)tetrahydrofuran-3,4-diol], the IC50 was 0.01 to 0.03 µM. Compound Cc1noc(-c2ccc3c(c2)OCO3)c1CSC[C@H]1O[C@@H](n2ccc3c(N)ncnc32)[C@H](O)[C@@H]1O [Compound 96c, (2R,3R,4S,5S)-2-(4-Amino-7H-pyrrolo[2,3-d]pyrimidin-7-yl)-5-((((5-(benzo[d][1,3]dioxol-5-yl)-3-methylisoxazol-4-yl)methyl)thio)methyl)tetrahydrofuran-3,4-diol] has an IC50 of 0.01 to 0.03 µM. Cc1noc(-c2ccc(F)cc2)c1CSC[C@H]1O[C@@H](n2ccc3c(N)ncnc32)[C@H](O)[C@@H]1O [Compound 97c, (2R,3R,4S,5S)-2-(4-Amino-7H-pyrrolo[2,3-d]pyrimidin-7-yl)-5-((((5-(4-fluorophenyl)-3-methylisoxazol-4-yl)methyl)thio)methyl)tetrahydrofuran-3,4-diol] was tested, and the IC50 was 0.1 to 0.5 µM. Cc1noc(C2CCCCC2)c1CSC[C@H]1O[C@@H](n2ccc3c(N)ncnc32)[C@H](O)[C@@H]1O [Compound 98c, (2R,3R,4S,5S)-2-(4-Amino-7H-pyrrolo[2,3-d]pyrimidin-7-yl)-5-((((5-cyclohexyl-3-methylisoxazol-4-yl)methyl)thio)methyl)tetrahydrofuran-3,4-diol] showed an IC50 of 0.5 to 2 µM. Compound Cc1noc(-c2cccc3ccccc23)c1CSC[C@H]1O[C@@H](n2ccc3c(N)ncnc32)[C@H](O)[C@@H]1O [Compound 100c, (2R,3R,4S,5S)-2-(4-Amino-7H-pyrrolo[2,3-d]pyrimidin-7-yl)-5-((((3-methyl-5-(naphthalen-1-yl)isoxazol-4-yl)methyl)thio)methyl)tetrahydrofuran-3,4-diol] has an IC50 of 0.01 to 0.03 µM. For Cc1noc(-c2cscn2)c1CSC[C@H]1O[C@@H](n2ccc3c(N)ncnc32)[C@H](O)[C@@H]1O [Compound 101c, (2R,3R,4S,5S)-2-(4-Amino-7H-pyrrolo[2,3-d]pyrimidin-7-y1)-5-((((3-methyl-5-(thiazol-4-y1)isoxazo1-4-yl)methyl)thio)methyl)tetrahydrofuran-3,4-diol], the IC50 was 0.03 to 0.1 µM. With Cc1ncnc(-c2ccc3c(c2)OCO3)c1CSC[C@H]1O[C@@H](n2ccc3c(N)ncnc32)[C@H](O)[C@@H]1O [Compound 102c, (2R,3R,4S,5S)-2-(4-Amino-7H-pyrrolo[2,3-d]pyrimidin-7-yl)-5-((((4-(benzo[d][1,3]dioxol-5-yl)-6-methylpyrimidin-5-yl)methyl)thio)methyl)tetrahydrofuran-3,4-diol] the IC50 was 0.03 to 0.1 µM.
